Where a name gives a salt, the structure may show the parent alone.
Tested on: HepaRG
Assay: LDH release cytotoxicity, % of total lysis control; higher = more cytotoxic
Settings: 48 h
Method in brief: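 Single-lot HepaRG cells on collagen I-coated 96-well plates were exposed for 48 h in duplicate, in serum-free induction medium with 0.5% DMSO, to eight-point half-log series (test chemicals top 100 µM). Total lysis wells received 0.1% Triton X, and LDH leakage into 50 µL spent medium was read as resorufin fluorescence (CytoTox-ONE, Tecan Safire). Percent cytotoxicity was normalized to on-plate vehicle and total lysis controls and averaged over the duplicates.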

CCN(CC)C(=O)SCc1ccc(Cl)cc1 [Thiobencarb]
Settings | LDH release cytotoxicity [%]
0.03162 µM | -1.69
0.1 µM | -1.48
0.3162278 µM | -1.6
1 µM | -2.11
3.16228 µM | -1.17
10 µM | -1.78
31.6228 µM | -1.01
100 µM | 2.18

CCC(=O)OC1CCC2C3CCC4=CC(=O)CCC4(C)C3CCC12C (stereo not given) [Testosterone propionate]
Settings | LDH release cytotoxicity [%]
0.03162 µM | -1.39
0.1 µM | -0.545
0.3162278 µM | -1.1
1 µM | -1.85
3.16228 µM | -1.06
10 µM | -1.07
31.6228 µM | -0.42
100 µM | -0.461

COS(=O)(=O)OC [Dimethyl sulfate]
Settings | LDH release cytotoxicity [%]
0.03162 µM | -0.536
0.1 µM | -0.931
0.3162278 µM | -1.52
1 µM | -1.6
3.16228 µM | -1.18
10 µM | -0.291
31.6228 µM | -1.17
100 µM | 3.53

CCN(CC)C(=O)C(C)Oc1cccc2ccccc12 (stereo not given) [Napropamide]
Settings | LDH release cytotoxicity [%]
0.03162 µM | -0.242
0.1 µM | -0.853
0.3162278 µM | -1.37
1 µM | -0.226
3.16228 µM | -1.59
10 µM | -0.144
31.6228 µM | 0.0468
100 µM | 1.05

C1CNCCN1 [Piperazine]
Settings | LDH release cytotoxicity [%]
0.03162 µM | -6.9
0.1 µM | -7.27
0.3162278 µM | -6.65
1 µM | -7.16
3.16228 µM | -6.57
10 µM | -6.04
31.6228 µM | -6.14
100 µM | -6.01

CCCN(CCC)C(=O)SCC [EPTC]
Settings | LDH release cytotoxicity [%]
0.03162 µM | 0.307
0.1 µM | -0.433
0.3162278 µM | -0.271
1 µM | -0.35
3.16228 µM | -0.208
10 µM | 0.499
31.6228 µM | 0.312
100 µM | 0.622

OCCO [Ethylene glycol]
Settings | LDH release cytotoxicity [%]
0.0317809 µM | -0.738
0.1005 µM | -1.93
0.317809 µM | -2.04
1.005 µM | -2.45
3.17809 µM | -1.91
10.05 µM | -1.42
31.7809 µM | -1.26
100.5 µM | 0.328

CC1(c2ccc(Oc3ccccc3)cc2)OC(=O)N(Nc2ccccc2)C1=O (stereo not given) [Famoxadone]
Settings | LDH release cytotoxicity [%]
0.0317809 µM | -0.255
0.1005 µM | -1.03
0.317809 µM | -0.879
1.005 µM | -1.52
3.17809 µM | -2.56
10.05 µM | 10.7
31.7809 µM | 18.1
100.5 µM | 64.5

CCCOC(=O)c1ccc(C(=O)OCCC)nc1 [Dipropyl 2,5-pyridinedicarboxylate]
Settings | LDH release cytotoxicity [%]
0.03305 µM | -4.74
0.1045 µM | -5.46
0.330458 µM | -5.78
1.045 µM | -4.98
3.30458 µM | -5.75
10.45 µM | -5.51
33.0458 µM | -4.96
104.5 µM | -4.42

N#Cc1cc(Br)c(O)c(Br)c1 [Bromoxynil]
Settings | LDH release cytotoxicity [%]
0.0253 µM | -2.04
0.08 µM | -2.14
0.252982 µM | -2.16
0.8 µM | -1.57
2.52982 µM | -1.26
8 µM | 0.434
25.2982 µM | 0.49
80 µM | 55.4

CC(C)C(=O)Nc1ccc([N+](=O)[O-])c(C(F)(F)F)c1 [Flutamide]
Settings | LDH release cytotoxicity [%]
0.03162 µM | -0.977
0.1 µM | -1.06
0.3162278 µM | -1.63
1 µM | -1.92
3.16228 µM | -1.23
10 µM | 0.0752
31.6228 µM | 2.14
100 µM | 13.6

CCOC(=O)CC(O)(CC(=O)OCC)C(=O)OCC [Triethyl citrate]
Settings | LDH release cytotoxicity [%]
0.03162 µM | -0.555
0.1 µM | -0.568
0.3162278 µM | 0.176
1 µM | -0.693
3.16228 µM | -0.115
10 µM | 0.0535
31.6228 µM | -0.467
100 µM | 1.14

CCOP(=S)(OCC)SCSCC [Phorate]
Settings | LDH release cytotoxicity [%]
0.03162 µM | -1.85
0.1 µM | -2.54
0.3162278 µM | -2.48
1 µM | -2.38
3.16228 µM | -2.32
10 µM | -1.2
31.6228 µM | -1.22
100 µM | -0.0088

NC=O [Formamide]
Settings | LDH release cytotoxicity [%]
0.03162 µM | -0.907
0.1 µM | -1.37
0.3162278 µM | -0.701
1 µM | -1.62
3.16228 µM | -1.72
10 µM | -1.47
31.6228 µM | -0.537
100 µM | 0.4

CCCCc1ccccc1 [Butylbenzene]
Settings | LDH release cytotoxicity [%]
0.03162 µM | -0.0627
0.1 µM | -0.967
0.3162278 µM | -0.793
1 µM | -0.547
3.16228 µM | -0.941
10 µM | -0.027
31.6228 µM | -0.00747
100 µM | 1.27

Cc1ccc(C(C)C)cc1 [p-Cymene]
Settings | LDH release cytotoxicity [%]
0.01581 µM | -0.487
0.05 µM | -1.9
0.1581139 µM | -3.02
0.5 µM | -2.63
1.5811388 µM | -1.96
5 µM | -2.1
15.8114 µM | -1.51
50 µM | 0.041

CCSC(=O)N1CCCCCC1 [Molinate]
Settings | LDH release cytotoxicity [%]
0.03162 µM | -2.17
0.1 µM | -2.09
0.3162278 µM | -1.9
1 µM | -2.25
3.16228 µM | -1.81
10 µM | -1.34
31.6228 µM | -0.237
100 µM | 1.3

C=CCC1=C(C)C(OC(=O)C2C(C=C(C)C)C2(C)C)CC1=O (stereo not given) [S-Bioallethrin]
Settings | LDH release cytotoxicity [%]
0.0147 µM | -2.51
0.0465 µM | -1.46
0.147046 µM | -1.76
0.465 µM | -2.13
1.4704591 µM | -1.73
4.65 µM | -1.51
14.7046 µM | -0.957
46.5 µM | 0.422

ClC1=C(Cl)C2(Cl)C3C4CC(C5OC45)C3C1(Cl)C2(Cl)Cl (stereo not given) [Endrin]
Settings | LDH release cytotoxicity [%]
0.03162 µM | -0.958
0.1 µM | -0.149
0.3162278 µM | -0.591
1 µM | -0.635
3.16228 µM | -0.591
10 µM | -0.724
31.6228 µM | 0.152
100 µM | 6.26

c1ccc(Nc2ccccc2)cc1 [Diphenylamine]
Settings | LDH release cytotoxicity [%]
0.03162 µM | -0.79
0.1 µM | -0.775
0.3162278 µM | -0.986
1 µM | -1.44
3.16228 µM | -1.13
10 µM | -1
31.6228 µM | 0.0424
100 µM | 3.57

From the supplement of paper PMC7840683
